# Assay results: patent US7674795B2, “Fluorene derivatives, composition containing said derivatives and the use thereof” (Aventis Pharma SA, priority 2005, dated 2010)
# Where a name gives a salt, the structure may show the parent alone.
# Target: Hsp82 (Saccharomyces cerevisiae, UniProt P02829)
# Experiment: PK/LDH enzyme coupling test of the ATPase activity of Hsp82 (NADH decrease at 340 nm)
# Format: biochemical
# Conditions: 1 μM Hsp82, 250 μM ATP, 37° C., pyruvate kinase/lactate dehydrogenase coupling, read-out: Hsp82 ATPase IC50
# Excerpt: The formation of ADP due to the ATPase activity of Hsp82 was utilized for developing another method of evaluating the enzymatic activity of this enzyme by application of an enzyme coupling system employing pyruvate kinase (PK) and lactate dehydrogenase (LDH). In this spectrophotometric method of the kinetic type, the PK catalyses the formation of ATP and of pyruvate starting from phosphoenol-pyruvate (PEP) and the ADP produced by HSP82. The pyruvate that formed, an LDH substrate, is then converted to lactate in the presence of NADH. In this case, the decrease in the concentration of NADH, measured by the decrease in absorbance at wavelength of 340 nm, is proportional to the concentration of ADP produced by HSP82. […] This mixture is preincubated at 37° C. for 30 min before adding 3.77 units of LDH and 3.77 units of PK. The reaction is started by adding the product to be evaluated, in variable concentrations, and of Hsp82, at a concentration of 1 μM. The enzymatic activity of Hsp82 is then measured continuously in a microplate reader at 37° C., at wavelength of 340 nm. The initial reaction rate is found by measuring the slope of the tangent at the origin of the recorded curve. The enzymatic activity is expressed as μM of ADP formed per minute. The effect of the various products tested is expressed as percentage of inhibition of ATPase activity, using the following codes: • A: […]
# Chain of Hsp82 (P02829 whole entry): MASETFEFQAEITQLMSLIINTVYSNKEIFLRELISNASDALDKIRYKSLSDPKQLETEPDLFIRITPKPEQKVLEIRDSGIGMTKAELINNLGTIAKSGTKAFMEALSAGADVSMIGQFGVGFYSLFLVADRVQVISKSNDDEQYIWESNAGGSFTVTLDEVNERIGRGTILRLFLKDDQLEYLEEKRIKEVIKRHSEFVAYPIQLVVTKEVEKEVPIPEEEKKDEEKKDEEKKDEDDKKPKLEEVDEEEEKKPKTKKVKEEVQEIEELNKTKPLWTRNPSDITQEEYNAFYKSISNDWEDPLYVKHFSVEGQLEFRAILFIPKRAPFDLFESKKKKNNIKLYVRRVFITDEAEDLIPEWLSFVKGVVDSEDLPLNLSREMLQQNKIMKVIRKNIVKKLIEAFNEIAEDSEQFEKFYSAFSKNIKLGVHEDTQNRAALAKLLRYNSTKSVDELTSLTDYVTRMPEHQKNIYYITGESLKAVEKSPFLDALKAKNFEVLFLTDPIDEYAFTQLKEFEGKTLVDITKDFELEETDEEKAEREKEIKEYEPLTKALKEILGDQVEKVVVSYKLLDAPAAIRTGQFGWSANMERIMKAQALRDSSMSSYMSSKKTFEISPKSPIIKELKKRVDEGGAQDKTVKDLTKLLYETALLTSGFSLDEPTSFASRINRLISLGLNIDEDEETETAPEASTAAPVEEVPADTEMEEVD
row,Structure (SMILES),IC50 [µM]
1,"O=C(NC1c2ccccc2-c2c(-c3nc4ccncc4[nH]3)cccc21)c1cccc(O)c1 (racemic) [Example 50, hydrochloride of 3-hydroxy-N-[4-(3H-imidazo[4,5-c]pyridin-2-yl)-9H-fluoren-9(R,S)-yl]-benzamide]",1 to 10
2,"O/N=C1\c2ccccc2-c2c1cccc2-c1nc2cnccc2[nH]1 [Example 19, 4-(3H-imidazo[4,5-c]pyridin-2-yl)-fluoren-9-one oxime (Z)]",1 to 10
3,"O=C(Cc1ccncc1)NC1c2ccccc2-c2c(-c3nc4ccncc4[nH]3)cccc21 (racemic) [Example 37, N-[4-(3H-imidazo[4,5-c]pyridin-2-yl)-9H-fluoren-9(R,S))-yl]-2-pyridin-4-yl-acetamide trifluoroacetate]",1 to 10
4,"Cc1cc(C(=O)NC2c3ccccc3-c3c(-c4nc5ccncc5[nH]4)cccc32)cc(O)n1 (racemic) [Example 121, 2-hydroxy-N-[4-(3H-imidazo[4,5-c]pyridin-2-yl)-9H-fluoren-9(R,S)-yl]-6-methyl-isonicotinamide]",1 to 10
5,"O=C(NC1c2ccccc2-c2c(-c3nc4cnccc4[nH]3)cccc21)c1ccc[n+]([O-])c1 (racemic) [Example 56, N-[4-(3H-imidazo[4,5-c]pyridin-2-yl)-9H-fluoren-9(R,S)-yl]-1-oxynicotinamide]",1 to 10
6,"NC1c2ccccc2-c2c(-c3nc4cnccc4[nH]3)cccc21 (racemic) [Example 6, 4-(3H-imidazo[4,5-c]pyridin-2-yl)-9H-fluorene-9(R,S)-amine]",10 to 100
7,"O=C(N[C@H]1c2ccccc2-c2c(-c3nc4ccncc4[nH]3)cccc21)c1cccc2ncccc12 (single isomer, unassigned) [Example 14B]",10 to 100
8,"Cc1cnccc1C(=O)NC1c2ccccc2-c2c(-c3nc4ccncc4[nH]3)cccc21 (racemic) [Example 96, N-[4-(3H-imidazo[4,5-c]pyridin-2-yl)-9H-fluoren-9(R,S)-yl]-3-methyl-isonicotinamide]",1 to 10
9,"NC(=O)CCNC(=O)NC1c2ccccc2-c2c(-c3nc4ccncc4[nH]3)cccc21 (racemic) [Example 79, trifluoroacetate of 3-{3-[4-(3H-imidazo[4,5-c]pyridin-2-yl)-9H-fluoren-9(R,S)-yl]-ureido}-propionamide]",10 to 100
10,"c1ccc2c(c1)-c1c(-c3nc4cnccc4[nH]3)cccc1C2NCc1ccc2cc[nH]c2c1 (racemic) [Example 22, N-[4-(3H-imidazo[4,5-c]pyridin-2-yl)-9H-fluoren-9(R,S)-yl]-(1H-indol-6-ylmethyl)-amine]",10 to 100
11,"COC(=O)c1cc(C(=O)NC2c3ccccc3-c3c(-c4nc5ccncc5[nH]4)cccc32)ccn1 (racemic) [Example 108, methyl ester of 4-[4-(3H-imidazo[4,5-c]pyridin-2-yl)-9H-fluoren-9(R,S)-ylcarbamoyl]-pyridine-2-carboxylic acid]",< 1
12,"NC(=O)C[C@H](N)C(=O)NC1c2ccccc2-c2c(-c3nc4cnccc4[nH]3)cccc21 (stereo partly drawn) [Example 63, hydrochloride of (S)-2-amino-N1-[4-(3H-imidazo[4,5-c]pyridin-2-yl)-9H-fluoren-9(R,S)-yl]-succinamide]",1 to 10
13,"ON=C1c2ccccc2-c2c1cccc2-c1nc2ccccc2[nH]1 (racemic) [Example 68, 4-(1H-benzimidazol-2-yl)-fluoren-9-one oxime (Z,E)]",10 to 100
14,"c1cncc(CON=C2c3ccccc3-c3c2cccc3-c2nc3cnccc3[nH]2)c1 (mixture of isomers) [Example 11, O-(pyridin-3-yl)methyl 4-(3H-imidazo[4,5-c]pyridin-2-yl)-fluoren-9-one oxime (Z, E)]",1 to 10
15,"O=C(NC1c2ccccc2-c2c(-c3nc4ccncc4[nH]3)cccc21)c1ccc2[nH]ncc2c1 (racemic) [Example 45, [4-(3H-imidazo[4,5-c]pyridin-2-yl)-9H-fluoren-9(R,S)-yl]amide of 1H-indazole-5-carboxylic acid]",1 to 10
16,"CC(=O)CCC(=O)NC1c2ccccc2-c2c(-c3nc4ccncc4[nH]3)cccc21 (racemic) [Example 49, hydrochloride of [4-(3H-imidazo[4,5-c]pyridin-2-yl)-9H-fluoren-9(R,S)-yl]amide of 4-oxo-pentanoic acid]",10 to 100
17,"COCCCNC(=O)c1cc(C(=O)NC2c3ccccc3-c3c(-c4nc5ccncc5[nH]4)cccc32)ccn1 (racemic) [Example 112, 4-{[4-(3H-imidazo[4,5-c]pyridin-2-yl)-9H-fluoren-9(R,S)-yl]amide}-2-[(3-methoxy-propyl)-amide] of pyridine-2,4-dicarboxylic acid]",1 to 10

row,Structure (SMILES),IC50 [µM]
1,"O=C(NC1c2ccccc2-c2c(-c3nc4ccncc4[nH]3)cccc21)c1ccncc1Br (racemic) [Example 98, 3-bromo-N-[4-(3H-imidazo[4,5-c]pyridin-2-yl)-9H-fluoren-9(R,S)-yl]-isonicotinamide]",1 to 10
2,"O=C(NC1c2ccccc2-c2c(-c3nc4ccncc4[nH]3)cccc21)c1ccnc2[nH]ccc12 (racemic) [Example 92, [4-(3H-imidazo[4,5-c]pyridin-2-yl)-9H-fluoren-9(R,S)-yl]amide of 1H-pyrrolo[2,3-b]pyridine-4-carboxylic acid]",< 1
3,"O=C(NC1c2ccccc2-c2c(-c3nc4ccncc4[nH]3)cccc21)c1cc(O)nc2ccccc12 (racemic) [Example 31, [4-(3H-imidazo[4,5-c]pyridin-2-yl)-9H-fluoren-9(R,S)-yl]amide of 2-hydroxy-quinoline-4-carboxylic acid]",1 to 10
4,"COc1ccc(CC(=O)NC2c3ccccc3-c3c(-c4nc5cnccc5[nH]4)cccc32)cc1 (racemic) [Example 27, N-[4-(3H-imidazo[4,5-c]pyridin-2-yl)-9H-fluoren-9(R,S)-yl]-2-(4-methoxy-phenyl)-acetamide]",1 to 10
5,"ON=C1c2ccccc2-c2c1cccc2-c1nc2ccc(O)cc2[nH]1 (racemic) [Example 107, 4-(6-hydroxy-1H-benzimidazol-2-yl)-fluoren-9-one oxime (Z,E)]",10 to 100
6,"O=C(NC1c2ccccc2-c2c(-c3nc4ccncc4[nH]3)cccc21)c1ccnc(O)n1 (stereo not drawn) [Example 89, [4-(3H-imidazo[4,5-c]pyridin-2-yl)-9H-fluoren-9-yl]amide of 2-hydroxypyrimidine-4-carboxylic acid]",1 to 10
7,"O=C(Cc1ccc(Cl)nc1)NC1c2ccccc2-c2c(-c3nc4cnccc4[nH]3)cccc21 (racemic) [Example 25, 2-(6-chloropyridin-3-yl)-N-[4-(3H-imidazo[4,5-c]pyridin-2-yl)-9H-fluoren-9(R,S)-yl]-acetamide]",1 to 10
8,"CCOC(=O)NC1c2ccccc2-c2c(-c3nc4cnccc4[nH]3)cccc21 (racemic) [Example 20, ethyl ester of [4-(3H-imidazo[4,5-c]pyridin-2-yl)-9H-fluoren-9(R,S)-yl]-carbamoic acid]",1 to 10
9,"O=C(NC1c2ccccc2-c2c(-c3nc4ccncc4[nH]3)cccc21)c1cccc2cnccc12 (racemic) [Example 35, [4-(3H-imidazo[4,5-c]pyridin-2-yl)-9H-fluoren-9(R,S)-yl]amide of isoquinoline-5-carboxylic acid]",10 to 100
10,"O=C(NC1c2ccccc2-c2c(-c3nc4ccncc4[nH]3)cccc21)c1c(Br)cnc2[nH]cnc12 (racemic) [Example 118, [4-(3H-imidazo[4,5-c]pyridin-2-yl)-9H-fluoren-9(R,S)-yl]amide of 6-bromo-3H-imidazo[4,5-b]pyridine-7-carboxylic acid]",< 1
11,"c1ccc2c(c1)-c1c(-c3nc4cnccc4[nH]3)cccc1C2NCc1ccc2[nH]ccc2c1 (racemic) [Example 18, N-[4-(3H-imidazo[4,5-c]pyridin-2-yl)-9H-fluoren-9(R,S)-yl]-(1H-indol-5-ylmethyl)-amine]",10 to 100
12,"O=C(NC1c2ccccc2-c2c(-c3nc4ccncc4[nH]3)cccc21)c1cccc2cc(O)ccc12 (racemic) [Example 34, hydrochloride of [4-(3H-imidazo[4,5-c]pyridin-2-yl)-9H-fluoren-9(R,S)-yl]amide of 6-hydroxy-naphthalene-1-carboxylic acid]",1 to 10
13,"O=C(NC1c2ccccc2-c2c(-c3nc4ccc(O)cc4[nH]3)cccc21)c1ccncc1 (racemic) [Example 117, N-[4-(6-hydroxy-1H-benzimidazol-2-yl)-9H-fluoren-9(R,S)-yl]-isonicotinamide]",1 to 10
14,"O=C(NC1c2ccccc2-c2c(-c3nc4ccncc4[nH]3)cccc21)c1cc[n+]([O-])cc1 (racemic) [Example 81, N-[4-(3H-imidazo[4,5-c]pyridin-2-yl)-9H-fluoren-9(R,S)-yl]-1-oxyisonicotinamide]",1 to 10
15,"NC(=O)NN=C1c2ccccc2-c2c1cccc2-c1nc2ccncc2[nH]1 [Example 30, trifluoroacetate of 4-(3H-imidazo[4,5-c]pyridin-2-yl)-fluoren-9-one semicarbazone (Z, E)]",10 to 100
16,"O=C(C=C1c2ccccc2-c2c1cccc2-c1nc2cnccc2[nH]1)Nc1cccnc1 (mixture of isomers) [Example 17, 2-[4-(3H-imidazo[4,5-c]pyridin-2-yl)-fluoren-(9E,Z)-ylidene]-N-pyridin-3-yl-acetamide]",1 to 10
